# Data published in patent US20240109893A1, “PREPARATION AND APPLICATION METHOD OF HETEROCYCLIC COMPOUNDS AS KRAS INHIBITOR” (SHANGHAI KECHOW PHARMA, INC., priority 2020, published 2024).
# Tested on: H358 cells
# Test: Cell activity experiment: activity test of H358 cells (MTT, 5 days)
# Format: cell-based
# Settings: 5 days incubation, absorbance 492 nm
# Method: Example: Cell Activity Experiment
# 1. Cells: H358 purchased from Shanghai EK-Bioscience Biotechnology Co., Ltd.
# 2. Reagents: RPMI 1640 medium, Tryple, MTT (5 mg/mL), DMSO, and DPBS.
# 3. Instruments: an incubator at 37° C. and 5% CO2, a UTRAO microplate reader, a biosafety cabinet, a cell counting plate, and an Optec optical microscope.
# 4. Experimental consumables: 96-well plate Item No.: 3599, and 96-well round-bottomed dispensing plate.
# Experimental Steps of Activity Test of H358 Cells:
# 1. Plating: Cells in the logarithmic growth phase were digested with Tryple and terminated with a fresh medium, and the cells were counted; and the cell concentration was adjusted to 55555 cells/mL with a fresh medium, wherein 90 μL was added to each well, and those on edges were filled with sterile DPBS.
# 2. The plate was incubated in the incubator at 37° C. and 5% CO2 for 24 h, so that the cells cover the bottom of the well by about 50%.
# 3. Drug preparation for experimental group: The drug was dissolved in DMSO to prepare a 20 mmol/L stock solution; the stock solution was further diluted with DMSO to 2 mmol/L, which was serially 3-fold diluted to form an […]-concentration gradient, resulting in a 200× serial compound solution; 10 μL of the serial compound solution was taken and added to 190 μLμL of RPMI1640 medium to obtain a 10× serial compound solution; and 10 μL of the 10× compound solution was taken and added to 90 μL 96-well cell culture plate, with three replicates per grade. The concentration gradient of the compound in the 96-well cell culture plate was […], 1.524158 nM, 4.572474 nM, 13.717420 nM, 41.152260 nM, 123.456800 nM, 370.370400 nM, 1111.111000 nM, 3333.333000 nM, and 10000.000000 nM, with 100 μL per well, and the final concentration of DMSO was 0.5%.
# The control group contained the same volume of solvent as the experimental group and was diluted with a complete medium, with 100 μL per well.
# 4. Incubation was carried out for 5 days in an incubator with 5% CO2 at 37° C.
# 5. After 5 days, 10 μL of an MTT solution (5 mg/mL) was added to each well, and the culture was continued for 4 h.
# 6. The culture was terminated, and the culture solution was carefully sucked out of the well.
# 7. 150 μL of dimethyl sulfoxide (DMSO) was added to each of the null wells in the experimental group and the control group; and after shaking at a medium speed for 10 s, the crystal was fully dissolved, and the optical absorbance value thereof was measured at a wavelength of 492 nm.
row,IC50,SMILES
1,550 nM,"C=CC(=O)N1CCN(c2nc(OC[C@@H]3CCCN3C)nc3c(F)c(-c4cccc5c4CC4CC54)ccc23)C[C@@H]1CC#N (single isomer, unassigned) [Example 882]"
2,35 nM,C=CC(=O)N1CC[C@H]2[C@H]1CN2c1c(Cl)c(-c2cccc3c2CCCC3)cc2nc(OC[C@@]34CCCN3C[C@H](F)C4)ncc12 [Example 473]
3,1260 nM,"C=C(F)C(=O)N1CCN(c2nc(OC[C@@H]3CCCN3C)nc3c(F)c(-c4cccc5c4CC4CC54)ccc23)C[C@@H]1CC#N (single isomer, unassigned) [Example 884]"

# Same assay, conditions: Homo sapiens, NCI-H358, 120 h, 5 days incubation, absorbance 492 nm
row,IC50,SMILES
1,10 nM,C=CC(=O)N1CCN(c2nc(OC[C@@H]3C[C@@H](F)CN3C)nc3c(F)c(-c4cccc5c4CCCC5)ccc23)C[C@@H]1CC#N [Example 360]
2,200 nM,C=CC(=O)N1CCN(c2nc(OC[C@@H]3CCCN3C)nc3cc(N4CCCc5cccc(Cl)c54)ccc23)C[C@@H]1CC#N [Example 618]
3,20 nM,C=CC(=O)N1CCC2[C@H]1CN2c1nc(OC[C@@H]2CCCN2C)nc2c(F)c(-c3cccc4c3CCCC4)ccc12 (stereo partly shown) [Example 369]
4,6 nM,C=CC(=O)N1CCC2[C@H]1CN2c1nc(OC[C@@H]2CCCN2C)nc2c(F)c(-c3cccc4ccc(F)c(Cl)c34)ccc12 (stereo partly shown) [Example 371]
5,35 nM,"C=CC(=O)N1CCN(c2nc(OC[C@@H]3CCCN3C)nc3cc(-c4cccc5c4CCCC5)ccc23)C[C@@H]1CC#N [Example 110, 2-((S)-1-acryloyl-4-(2-(((S)-1-methylpyrrolidin-2-yl)methoxy)-7-(5,6,7,8-tetrahydronaphthalen-1-yl)quinazolin-4-yl)piperazin-2-yl)acetonitrile]"
6,70 nM,"C=C(F)C(=O)N1CCN(c2nc(OC[C@@H]3CCCN3C)nc3c(F)c(-c4cccc5c4CCCC5)ncc23)C[C@@H]1CC#N [Example 4, 2-((S)-4-(8-fluoro-2-(((S)-1-methylpyrrolidin-2-yl)methoxy)-7-(5,6,7,8-tetrahydronaphthalen-1-yl)pyridino[4,3-d]pyrimidin-4-yl)-1-(2-fluoroacryloyl)piperazin-2-yl)acetonitrile]"
7,50 nM,C=CC(=O)N1CCN(c2nc(OCC34CCCN3CCC4)nc3cc(-c4cccc5c4CCCC5)c(Cl)cc23)C[C@@H]1CC#N [Example 470]
8,3.6 nM,C=C(F)C(=O)N1CCN(c2nc(OC[C@@H]3CCCN3C)nc3c(F)c(-c4cccc5ccc(F)c(Cl)c45)ccc23)C[C@@H]1CC#N [Example 913]
9,6.5 nM,C=CC(=O)N1CC[C@@H]2[C@H]1CN2c1nc(OC[C@@]23CCCN2C[C@H](F)C3)nc2c(F)c(-c3cncc4c3CCCC4)ncc12 [Example 47]
10,100 nM,C=C(F)C(=O)N1CCN(c2nc(OC[C@@H]3CCCN3C)nc3c(F)c(-c4ccc(F)c5c4CCCC5)ncc23)C[C@@H]1CC#N [Example 18]
11,18 nM,"C=CC(=O)N1CCN(c2nc(OC[C@@H]3CCCN3C)nc3cc(-c4cncc5cccc(Cl)c45)ccc23)C[C@@H]1CC#N [Example 126, 2-((S)-1-acryloyl-4-(7-(5-chloroisoquinolin-4-yl)-2-((((S)-1-methylpyrrolidin-2-yl)methoxy)quinazolin-4-yl])piperazin-2-yl)acetonitrile]"
12,160 nM,"C=CC(=O)N1CCN(c2nc(OC[C@@H]3CCCN3C)nc3c(F)c(-c4cccc5c4CCCC5)c(Cl)cc23)CC1 [Example 76, 1-(4-(6-chloro-8-fluoro-2-(((S)-1-methylpyrrolidin-2-yl)methoxy)-7-(5,6,7,8-tetrahydronaphthalen-1-yl)quinazolin-4-yl)piperazin-1-yl)prop-2-en-1-one]"
13,5 nM,"C=CC(=O)N1CC[C@@H]2[C@H]1CN2c1nc(OC[C@@H]2CCCN2C)nc2cc(-c3cccc4ccc(F)c(Cl)c34)ccc12 [Example 101, 1-((1R,5R)-6-(7-(8-chloro-7-fluoronaphthalen-1-yl)-2-(((S)-1-methylpyrrolidin-2-yl)methoxy)quinazolin-4-yl)-2,6-diazabicyclo[3.2.0]hept-2-yl)prop-2-en-1-one]"
14,10 nM,"C=CC(=O)N1CC[C@H]2[C@H]1CN2c1nc(OC[C@@H]2CCCN2C)nc2c(F)c(-c3cccc4cccc(Cl)c34)ccc12 [Example 370, 1-((1R,5S)-6-(7-(8-chloronaphthalen-1-yl)-8-fluoro-2-(((S)-1-methylpyrrolidin-2-yl)methoxy)quinazolin-4-yl)-2,6-diazabicyclo[3.2.0]hept-2-yl)prop-2-en-1-one]"

# Further lines, the compound ahead of its results:
row,SMILES,IC50
1,C=C(F)C(=O)N1CC[C@@H]2[C@H]1CN2c1nc(OC[C@@H]2C[C@@H](F)CN2C)nc2c(F)c(-c3cncc4c3CCCC4)ncc12 [Example 44],64 nM
2,"C=C(F)C(=O)N1CCN(c2nc(OC[C@@]34CCCN3C[C@H](F)C4)nc3c(OC4CC4)c(-c4c(C)ccc5[nH]ncc45)c(Cl)cc23)C[C@@H]1CC#N [Example 932, 2-((2S)-4-(6-chloro-8-cyclopropoxy-2-((2R,7aS)-2-fluorotetrahydro-1H-pyrrolizin-7a(5H)-ylmethoxy)-7-(5-methyl-1H-indazol-4-yl)quinazolin-4-yl)-1-(2-fluoroacryloyl)piperazin-2-yl)acetonitrile]",0.4 nM
3,"C=CC(=O)N1CCN(c2nc(OCC34CCCN3CCC4)nc3cc(-c4cncc5cccc(Cl)c45)ccc23)C[C@@H]1CC#N [Example 130, (S)-2-(1-acryloyl-4-(7-(5-chloroisoquinolin-4-yl)-2-((tetrahydro-1H-pyrrolizin-7a(5H)-yl)methoxy)quinazolin-4-yl)piperazin-2-yl)acetonitrile]",8 nM
4,"C=C(F)C(=O)N1CCN(c2nc(OCC34CCCN3CCC4)nc3c(F)c(-c4cccc5c4C4CC4C5)ncc23)C[C@@H]1CC#N (stereo partly drawn) [Example 62, 2-((2S)-4-(8-fluoro-2-((tetrahydro-1H-pyrrolizin-7a(5H)-yl)methoxy)-7-(1,1a,6,6a-tetrahydrocyclopropa[a]inden-2-yl)pyridino[4,3-d]pyrimidin-4-yl)-1-(2-fluoroacryloyl)piperazin-2-yl)acetonitrile]",8 nM
5,C=CC(=O)N1CCN(c2nc(OC[C@@]34CCCN3C[C@H](F)C4)nc3cc(-c4cccc5cccc(Cl)c45)ccc23)C[C@@H]1CC#N [Example 83],3.2 nM
6,C=C(F)C(=O)N1CCN(c2nc(OCC34CCCN3CCC4)nc3cc(-c4cccc5c4CCCC5)ccc23)C[C@@H]1CC#N [Example 115],45 nM
7,"C=C(F)C(=O)N1CCN(c2nc(OCC34CCCN3CCC4)nc3c(F)c(-c4cccc5c4[C@@H]4C[C@@H]4C5)ncc23)C[C@@H]1CC#N [Example 66, 2-((S)-4-(8-fluoro-2-((tetrahydro-1H-pyrrolizin-7a(5H)-yl)methoxy)-7-((1aR,6aR)-1,1a,6,6a-tetrahydrocyclopropa[a]inden-2-yl)pyridino[4,3-d]pyrimidin-4-yl)-1-(2-fluoroacryloyl)piperazin-2-yl)acetonitrile]",9 nM
8,"C=CC(=O)N1CCN(c2nc(OCC3(CN4CCCC4)CC3)nc3c(F)c(-c4cccc5cccc(Cl)c45)ccc23)C[C@@H]1CC#N [Example 855, (S)-2-(1-acryloyl-4-(7-(8-chloronaphthalen-1-yl)-8-fluoro-2-((1-(pyrrolidin-1-ylmethyl)cyclopropyl)methoxy)quinazolin-4-yl)piperazin-2-yl)acetonitrile]",5.1 nM
9,C=C(F)C(=O)N1CC[C@@H]2[C@H]1CN2c1nc(OC[C@@]23CCCN2C[C@H](F)C3)nc2c(F)c(-c3cncc4c3CCCC4)ncc12 [Example 48],20 nM
10,C=C(F)C(=O)N1CCN(c2nc(OC[C@@H]3C[C@@H](F)CN3C)nc3cc(-c4cccc5cccc(Cl)c45)ccc23)C[C@@H]1CC#N [Example 80],65 nM
11,C=CC(=O)N1CCN(c2nc(OCC34CCCN3C[C@H](F)C4)nc3cc(-c4cncc5cccc(Cl)c45)ccc23)C[C@@H]1CC#N (stereo partly shown) [Example 132],3 nM
12,C=CC(=O)N1CCN(c2nc(OCC34CCCN3CCC4)nc3cc(-c4cccc5cccc(Cl)c45)ccc23)C[C@@H]1CC#N [Example 81],5.5 nM
13,C=C(F)C(=O)N1CCN(c2nc(OC[C@@]34CCCN3C[C@H](F)C4)nc3c(F)c(-c4cncc5cccc(Cl)c45)ccc23)C[C@@H]1CC#N [Example 165],4 nM
14,"C=C(F)C(=O)N1CCN(c2nc(OCC3(CN4CCCC4)CC3)nc3c(F)c(-c4cccc5c4C4CC4C5)ccc23)C[C@@H]1CC#N (single isomer, unassigned) [Example 870]",7.2 nM
